Among the data in paper PMC5116268 (Journal of pharmacological and toxicological methods, 2016) are EC50 values, retold here.

As usually defined, the EC50 is the concentration that produces a half-maximal response. Read a high EC50 as a less potent agent.

In this test the test system is GABAA receptor (native mixed population in iCell Neurons). The experiment in a line: automated patch clamp. It counts as cell-based, Homo sapiens. On the technique in general: The patch-clamp technique gives a direct electrical read-out from membranes.

With `COc1ccc(-n2nc3c4ccc(OC)cc4[nH]cc-3c2=O)cc1` [CW-04-020], the half-maximal effective concentration (EC50) stood at 230 ± 70 nM.

Compound `C#Cc1ccc2c(c1)C(c1ccccn1)=NCc1c(C(=O)OCC)ncn1-2` [HZ166] gave an EC50 of 1560 ± 830 nM.

In turn, `CN1C(=O)CN=C(c2ccccc2)c2cc(Cl)ccc21` [diazepam] registered a half-maximal effective concentration (EC50) of 420 ± 120 nM.
